Results as given in ChEMBL document CHEMBL1201862, “PubChem BioAssay data set” (2004).
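A five-concentration, 48-hour dose response in 96-well plates underlies each endpoint, interpolated linearly between surrounding concentrations. GI50: concentration for 50% inhibition of growth.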 Active and inactive are the calls of the source. No stated cut-off is given here; in the data, active = GI50 up to about 1.1 µM and inactive = higher.

Key:
Test in all cases: NCI tumour cell line growth inhibition, 48 h
RXF 393 = system: RXF 393
KM12 = system: KM12
PC-3 = system: PC-3
HOP-62 = system: HOP-62
SK-MEL-28 = system: SK-MEL-28
MDA-MB-231 = system: MDA-MB-231
HCT-116 = system: HCT-116
OVCAR-3 = system: OVCAR-3
CAKI-1 = system: CAKI-1
UACC-62 = system: UACC-62
Malme-3M = system: Malme-3M
OVCAR-8 = system: OVCAR-8
U-251 = system: U-251
UO-31 = system: UO-31
CCRF-CEM = system: CCRF-CEM
HCC 2998 = system: HCC 2998
MCF7 = system: MCF7
ACHN = system: ACHN
IGROV-1 = system: IGROV-1
OVCAR-4 = system: OVCAR-4

Measured: GI50

NC(=O)NO [HYDROXYUREA]
inactive: RXF 393 857 µM | KM12 902 µM | PC-3 1010 µM | HOP-62 904 µM | SK-MEL-28 1920 µM | MDA-MB-231 > 1410 µM | HCT-116 995 µM | OVCAR-3 1240 µM | CAKI-1 270 µM | UACC-62 291 µM | Malme-3M 1170 µM | OVCAR-8 504 µM | U-251 581 µM | UO-31 508 µM | CCRF-CEM 50.4 µM | HCC 2998 679 µM | MCF7 385 µM | ACHN 108 µM | IGROV-1 1110 µM | OVCAR-4 1850 µM

O=C(O)Cc1cccc2c(=O)cc(-c3ccccc3)oc12 [MITOFLAXONE]
inactive: RXF 393 244 µM | KM12 240 µM | PC-3 > 250 µM | HOP-62 243 µM | SK-MEL-28 > 250 µM | MDA-MB-231 > 250 µM | HCT-116 206 µM | OVCAR-3 235 µM | CAKI-1 142 µM | UACC-62 > 250 µM | Malme-3M > 250 µM | OVCAR-8 > 175 µM | U-251 > 250 µM | UO-31 147 µM | CCRF-CEM 213 µM | HCC 2998 > 250 µM | MCF7 236 µM | ACHN > 250 µM | IGROV-1 > 250 µM | OVCAR-4 185 µM
